Test results: patent US12103952B2, “Methods for expressing proteins in axons” (Cornell University, priority 2010, dated 2024)

How the values were obtained:
[1] = system: CREB reporter mRNA translation in DRG axons; assay: myr-dEGFP3′CREB Sindbis translation reporter in axons; format: cell-based, rat; details: factor restored after NGF-free media
From the text: FIGS. 5A-C are results showing NGF-dependent translation of a CREB reporter mRNA in axons. (A) Schematic diagram of the Sindbis viral reporter construct used to monitor CREB translation. The reporter contains a myristoylated, destabilized EGFP (myr-dEGFP) with the 3′UTR of CREB, expressed under control of the Sindbis subgenomic promoter (PSG). (B) E15 DRG explant cultures were infected with Sindbis constructs expressing myr-dEGFP3′CREB on DIV3 and fluorescence (bottom panel) and phase (top panel) images, approximately 1000 μm from the cell body were collected after 24 hours. Fluorescence images are shown in inverted contrast in order to more readily visualize puncta. Scale bar, 25 μm. […] EGFP fluorescence co-localizes with a population of S6-labeled ribosomal clusters. […]
FIGS. 6A-H are data showing that axonal CREB is specifically translated in response to NGF. […] (B) E15 DRG explant cultures were infected with Sindbis constructs expressing myr-dEGFP3′RhoA or myr-dEGFP3′H1f0 on DIV3 and fluorescence images were collected after 24 h. […] (D) Axons from DIV3 DRGs were analyzed for CREB and mitochondrial localizations by immunofluorescence using CREB-specific and VDAC/porin1-specific antibodies. […] CREB mRNA was detected by FISH using a CREB specific riboprobe. […] (H) Axons of DIV3 DRG explant cultures were analyzed by immunofluorescence for NGF effectors CREB, pTrkA and pErk5 at 3 DIV. […]

[2] = system: CRE-dependent transcription; assay: CRE-luciferase adenovirus reporter in DRG neurons; format: cell-based, rat

In the case of NGF: nerve growth factor, the “fluorescent myr-dEGFP3′CREB puncta” value [1] is reported as “reappeared following restoration of NGF”, the luciferase levels ([2]; axonal application of NGF) is reported as “increased luciferase levels” and the luciferase immunofluorescence ([2]; bath application of NGF, 0-100 ng/ml, 24 hours) is reported as “dose-dependent increase in luciferase immunofluorescence”.
